Patent publication US6706740B2, “Fungicidal heterocyclic aromatic amides and their compositions, methods of use and preparation” (Dow AgroSciences LLC, priority 1999, dated 2004)

What follows are molecules tested on Rhizoctonia solani (RHIZSO) (assay: microbe, parasite or virus in culture). Settings: not given.
Format: cell-based
In the case of `COc1ccnc(C(=O)N[C@@H]2CC(C)(C)C[C@](C)(C(=O)N(C)CCc3ccccc3)C2)c1O` [Compound 263], the “RHIZSO in vitro Growth Inhibition” value is reported as “− (key: +: at least 80% growth inhibition; −: less than 80% growth inhibition)”.

Same assay, conditions: Rhizoctonia solani, read-out: RHIZSO in vitro Growth Inhibition
`COc1ccnc(C(=O)NC(COC(=O)C(Cc2ccccc2)C(C)OC(=O)C(C)C)C(=O)OC(C)C)c1O` (stereo not drawn) [Compound 355] was tested, and the inhibition at 25 ppm was < 80%. In the case of `COc1ccnc(C(=O)NC2CC(=O)OCC(C)COC2=O)c1O` (stereo not drawn) [Compound 378], the inhibition at 25 ppm is reported as < 80%.

Each molecule was assayed on Erysiphe graminis—ERYSGT (assay: Powdery Mildew of Wheat, in vivo whole plant, 24 Hour Protectant). Settings: 100 ppm spray, 24 hour protectant, wheat; control of fungal infection vs untreated plants.
For `COc1ccnc(C(=O)N[C@@H]2CC(C)(C)C[C@](C)(C(=O)N(C)CCc3ccccc3)C2)c1O` [Compound 263], the “ERYSGT in vivo 1 Day Protectant” value was “− (<25% control of fungal infection)”.

Same assay, conditions: Erysiphe; 100 ppm spray, wheat, 24 hour protectant; control of fungal infection vs untreated plants; read-out: ERYSGT in vivo 1 Day Protectant
For `COc1ccnc(C(=O)NC(COC(=O)C(Cc2ccccc2)C(C)OC(=O)C(C)C)C(=O)OC(C)C)c1O` (stereo not drawn) [Compound 355], the pest or weed control at 100 ppm was < 25%. For `COc1ccnc(C(=O)NC2CC(=O)OCC(C)COC2=O)c1O` (stereo not drawn) [Compound 378], the pest or weed control at 100 ppm was < 25%.

Each molecule was assayed on Puccinia recondita—PUCCRT (assay: Brown Rust of Wheat, in vivo whole plant, 24 Hour Protectant). Settings: 100 ppm spray, 24 hour protectant, wheat; control of fungal infection vs untreated plants.
In the case of `COc1ccnc(C(=O)N[C@@H]2CC(C)(C)C[C@](C)(C(=O)N(C)CCc3ccccc3)C2)c1O` [Compound 263], the “PUCCRT in vivo 1 Day Protectant” value is reported as “− (<25% control of fungal infection)”.

Same assay, conditions: Puccinia; 100 ppm spray, wheat, 24 hour protectant; control of fungal infection vs untreated plants; read-out: PUCCRT in vivo 1 Day Protectant
`COc1ccnc(C(=O)NC(COC(=O)C(Cc2ccccc2)C(C)OC(=O)C(C)C)C(=O)OC(C)C)c1O` (stereo not drawn) [Compound 355] gave a pest or weed control at 100 ppm of 25 to 74%. In the case of `COc1ccnc(C(=O)NC2CC(=O)OCC(C)COC2=O)c1O` (stereo not drawn) [Compound 378], the pest or weed control at 100 ppm is reported as < 25%.

Each molecule was assayed on Mycosphaerella graminicola (Septoria tritici—SEPTTR) (assay: In vitro fungal growth inhibition, Mycosphaerella graminicola (SEPTTR)). Settings: 25 ppm in growth medium.
Format: cell-based
For `COc1ccnc(C(=O)N[C@@H]2CC(C)(C)C[C@](C)(C(=O)N(C)CCc3ccccc3)C2)c1O` [Compound 263], the “SEPTTR in vitro Growth Inhibition” value was “− (less than 80% growth inhibition)”.

Same assay, conditions: Zymoseptoria tritici; 25 ppm in growth medium; read-out: SEPTTR in vitro Growth Inhibition
For `COc1ccnc(C(=O)NC(COC(=O)C(Cc2ccccc2)C(C)OC(=O)C(C)C)C(=O)OC(C)C)c1O` (stereo not drawn) [Compound 355], the inhibition at 25 ppm was < 80%. With `COc1ccnc(C(=O)NC2CC(=O)OCC(C)COC2=O)c1O` (stereo not drawn) [Compound 378] the inhibition at 25 ppm was < 80%.

What follows are molecules tested on Stagonospora nodorum (Leptosphaeria nodorum—LEPTNO) (assay: In vitro fungal growth inhibition, Stagonospora nodorum (LEPTNO)). Settings: 25 ppm in growth medium.
Format: cell-based
For `COc1ccnc(C(=O)N[C@@H]2CC(C)(C)C[C@](C)(C(=O)N(C)CCc3ccccc3)C2)c1O` [Compound 263], the “LEPTNO in vitro Growth Inhibition” value was “− (less than 80% growth inhibition)”.

Same assay, conditions: Leptosphaeria; 25 ppm in growth medium; read-out: LEPTNO in vitro Growth Inhibition
For `COc1ccnc(C(=O)NC(COC(=O)C(Cc2ccccc2)C(C)OC(=O)C(C)C)C(=O)OC(C)C)c1O` (stereo not drawn) [Compound 355], the inhibition at 25 ppm was < 80%. In the case of `COc1ccnc(C(=O)NC2CC(=O)OCC(C)COC2=O)c1O` (stereo not drawn) [Compound 378], the inhibition at 25 ppm is reported as < 80%.

What follows are molecules tested on Phytophthora infestans—PHYTIN (assay: whole plant or invertebrate). Settings: 100 ppm spray, 24 hour protectant, tomato; control of fungal infection vs untreated plants.
Format: in vivo
In the case of `COc1ccnc(C(=O)N[C@@H]2CC(C)(C)C[C@](C)(C(=O)N(C)CCc3ccccc3)C2)c1O` [Compound 263], the “PHYTIN in vivo 1 Day Protectant” value is reported as “− (<25% control of fungal infection)”.

Same assay, conditions: Phytophthora, in Solanum lycopersicum, 24 h, read-out: PHYTIN in vivo 1 Day Protectant
For `COc1ccnc(C(=O)NC(COC(=O)C(Cc2ccccc2)C(C)OC(=O)C(C)C)C(=O)OC(C)C)c1O` (stereo not drawn) [Compound 355], the pest or weed control at 100 ppm was < 25%. In the case of `COc1ccnc(C(=O)NC2CC(=O)OCC(C)COC2=O)c1O` (stereo not drawn) [Compound 378], the pest or weed control at 100 ppm is reported as < 25%.

These molecules were tested on Ustilago maydis (USTIMA) (assay: microbe, parasite or virus in culture). Settings: not given.
Format: cell-based
With `COc1ccnc(C(=O)N[C@@H]2CC(C)(C)C[C@](C)(C(=O)N(C)CCc3ccccc3)C2)c1O` [Compound 263] the “USTIMA in vitro Growth Inhibition” value was “− (key: +: at least 80% growth inhibition; −: less than 80% growth inhibition)”.

Same assay, conditions: Mycosarcoma maydis, read-out: USTIMA in vitro Growth Inhibition
For `COc1ccnc(C(=O)NC(COC(=O)C(Cc2ccccc2)C(C)OC(=O)C(C)C)C(=O)OC(C)C)c1O` (stereo not drawn) [Compound 355], the inhibition at 25 ppm was < 80%. In the case of `COc1ccnc(C(=O)NC2CC(=O)OCC(C)COC2=O)c1O` (stereo not drawn) [Compound 378], the inhibition at 25 ppm is reported as < 80%.

These molecules were tested on Leptosphaeria nodorum—LEPTNO (assay: Glume Blotch of Wheat, in vivo whole plant, 24 Hour Protectant). Settings: 100 ppm spray, 24 hour protectant, wheat; control of fungal infection vs untreated plants.
For `COc1ccnc(C(=O)N[C@@H]2CC(C)(C)C[C@](C)(C(=O)N(C)CCc3ccccc3)C2)c1O` [Compound 263], the “LEPTNO in vivo 1 Day Protectant” value was “+ (25-74% control of fungal infection)”.

Same assay, conditions: Leptosphaeria; 100 ppm spray, wheat, 24 hour protectant; control of fungal infection vs untreated plants; read-out: LEPTNO in vivo 1 Day Protectant
`COc1ccnc(C(=O)NC(COC(=O)C(Cc2ccccc2)C(C)OC(=O)C(C)C)C(=O)OC(C)C)c1O` (stereo not drawn) [Compound 355] was tested, and the pest or weed control at 100 ppm was < 25%. `COc1ccnc(C(=O)NC2CC(=O)OCC(C)COC2=O)c1O` (stereo not drawn) [Compound 378] showed a pest or weed control at 100 ppm of 25 to 74%.

Each molecule was assayed on Phytophthora infestans (PHYTIN) (assay: microbe, parasite or virus in culture). Settings: 25 ppm in growth medium.
Format: cell-based
With `COc1ccnc(C(=O)N[C@@H]2CC(C)(C)C[C@](C)(C(=O)N(C)CCc3ccccc3)C2)c1O` [Compound 263] the “PHYTIN in vitro Growth Inhibition” value was “− (less than 80% growth inhibition)”.

Same assay, conditions: Phytophthora infestans, read-out: PHYTIN in vitro Growth Inhibition
For `COc1ccnc(C(=O)NC(COC(=O)C(Cc2ccccc2)C(C)OC(=O)C(C)C)C(=O)OC(C)C)c1O` (stereo not drawn) [Compound 355], the inhibition at 25 ppm was < 80%. `COc1ccnc(C(=O)NC2CC(=O)OCC(C)COC2=O)c1O` (stereo not drawn) [Compound 378] was tested, and the inhibition at 25 ppm was < 80%.

These molecules were tested on Septoria tritici—SEPTTR (assay: Leaf Blotch of Wheat, in vivo whole plant, 24 Hour Protectant). Settings: 100 ppm spray, 24 hour protectant, wheat; control of fungal infection vs untreated plants.
With `COc1ccnc(C(=O)N[C@@H]2CC(C)(C)C[C@](C)(C(=O)N(C)CCc3ccccc3)C2)c1O` [Compound 263] the “SEPTTR in vivo 1 Day Protectant” value was “− (<25% control of fungal infection)”.

Same assay, conditions: Zymoseptoria tritici, 24 h, 100 ppm spray, wheat, 24 hour protectant; control of fungal infection vs untreated plants; read-out: SEPTTR in vivo 1 Day Protectant
`COc1ccnc(C(=O)NC(COC(=O)C(Cc2ccccc2)C(C)OC(=O)C(C)C)C(=O)OC(C)C)c1O` (stereo not drawn) [Compound 355] was tested, and the pest or weed control at 100 ppm was < 25%. With `COc1ccnc(C(=O)NC2CC(=O)OCC(C)COC2=O)c1O` (stereo not drawn) [Compound 378] the pest or weed control at 100 ppm was < 25%.

What follows are molecules tested on Magnaporthe grisea (Pyricularia oryzae—PYRIOR) (assay: microbe, parasite or virus in culture). Settings: 25 ppm in growth medium.
Format: cell-based
`COc1ccnc(C(=O)N[C@@H]2CC(C)(C)C[C@](C)(C(=O)N(C)CCc3ccccc3)C2)c1O` [Compound 263] was tested, and the “PYRIOR in vitro Growth Inhibition” value was “− (less than 80% growth inhibition)”.

Same assay, conditions: Pyricularia oryzae, read-out: PYRIOR in vitro Growth Inhibition
With `COc1ccnc(C(=O)NC(COC(=O)C(Cc2ccccc2)C(C)OC(=O)C(C)C)C(=O)OC(C)C)c1O` (stereo not drawn) [Compound 355] the inhibition at 25 ppm was < 80%. `COc1ccnc(C(=O)NC2CC(=O)OCC(C)COC2=O)c1O` (stereo not drawn) [Compound 378] was tested, and the inhibition at 25 ppm was < 80%.
